A short description of data set [1]: Acute toxicity, Karber and Behrens method, female IFFA-CREDO mice. Conditions: mouse, in vivo. On the procedure:
Acute toxicity was determined by the intravenous and oral routes, using the Karber and Behrens method, in mice female IFFA-CREDO weighing 20 g (10 mice per dosage level).

Data set [2] in a line: Solubility in physiological saline solution. The class given is physicochemical.
Data set [3] concerns Proteus vulgaris. Briefly: Antibacterial activity, dilution method: Proteus vulgaris. The class given is cell-based. Conditions: Difco bacto-peptone medium. The method, then:
(§1) The tests were carried out according to the dilution method.
(§2) To determine the activity against Staphylococcus, Proteus vulgaris, Klebsiella pneumoniae and Escherichia coli, use was made of Difco bacto-peptone medium, and nutrient broth T was used to investigate the activity against Pneumococcus.

Data set [4] has as its system Klebsiella pneumoniae. Kind of data set: Antibacterial activity, dilution method: Klebsiella pneumoniae. The class given is cell-based. Conditions: Difco bacto-peptone medium. On the procedure: as §1, §2
Data set [5] concerns Staphylococcus pyogenes aureus Oxford. Briefly: Antibacterial activity, dilution method: Staphylococcus pyogenes aureus Oxford. The class given is cell-based. The conditions noted are these: Difco bacto-peptone medium. On the procedure: as §1, §2
The subject of data set [6] is gram-positive germs. Briefly: Antibacterial activity, dilution method: gram-positive germs (summary). Conditions: in words. The class given is cell-based. On the procedure: as §1, §2
In data set [7] the test system is Diplococcus pneumoniae 692. Kind of data set: Antibacterial activity, dilution method: Diplococcus pneumoniae 692. The class given is cell-based. The conditions noted are these: for MIC: Streptococcus pneumoniae, 692, nutrient broth T. The method, then: as §1, §2
For data set [8], the system named is Streptococcus pyrogenes 5625. Kind of data set: Antibacterial activity, dilution method: Streptococcus pyrogenes 5625. In kind it is cell-based. On the procedure:
as §1, §2

In data set [9] the test system is Escherichia coli. Kind of data set: Antibacterial activity, dilution method: Escherichia coli. The class given is cell-based. The conditions noted are these: Difco bacto-peptone medium. The method, then: as §1, §2
Data set [10] in a line: Sensitivity to light and air. The class given is physicochemical.

SMILES strings stand for the structures. Values after ≈ are worked out from the molar mass of the structure shown. Bounds are passed on as bounds.

For orientation: LD50 means the dose expected to kill half of the subjects tested. Read a low LD50 as greater toxicity. Broadly, the MIC is the smallest concentration in the dilution series that meets the test's criterion for growth inhibition. In the case of `Cc1c(C2=CCC(C)CC2C(C)C)cc(C(C)C)c(O)c1S(=O)(=O)O` (stereo not shown) [LJ 2128, m.menthene-thymol-2-sulfonate], the LD50 in data set [1] (iv) was determined as 125 mg/kg; in [1] (po), 1920 mg/kg. Further, the “solubility in physiological saline solution” value in [2] was “soluble in physiological saline solution, giving a clear solution”. In addition, the MIC is over 1000 µg/mL in data set [3]; over 1000 µg/mL in [4]; 140 µg/mL (≈ 382 µM) in [5]; 12 µg/mL (≈ 32.7 µM) in data set [7]; 16 µg/mL (≈ 43.7 µM) in [8]; over 1000 µg/mL in data set [9]. In data set [6], the “activity against gram-positive germs” value is given as “active against gram-positive germs”.

For `CC1CC=C(c2ccc(O)c(S(=O)(=O)O)c2)C(C(C)C)C1` (stereo not shown) [LJ 2148, sodium m.menthene-phenol-2-sulfonate], the LD50 in data set [1] (iv) was found to be 305 mg/kg; in data set [1] (po), 2900 mg/kg. For the same molecule, in data set [2], the “solubility in physiological saline solution” value is “soluble in physiological saline solution”. In addition, the minimum inhibitory concentration (MIC) in data set [3] is over 1000 µg/mL; in [4], over 1000 µg/mL; in [5], 28 µg/mL; in data set [7], 3 µg/mL; in data set [8] it was 10 µg/mL; in data set [9], over 1000 µg/mL. Also, the “activity against gram-positive germs” value in data set [6] was “active against gram-positive germs”. In data set [7] (in words), the “activity against Diplococcus pneumoniae” value was “particularly active against Diplococcus pneumoniae”.

For `CC1CC=C(c2ccc(O)cc2)C(C(C)C)C1` (stereo not shown) [m.menthene-phenol, 4-(3'-m.menthen-4'-yl)-phenol], in [10], the “sensitivity to light and air” value is “highly sensitive to light and air”.

These data come from patent US4054669A, “Phenolic menthene derivatives, therapeutic composition containing same and their use as therapeutic compositions” (Les Derives Resiniques et Terpeniques, priority 1975, dated 1977).
